In US12503469B2, “Forms of methyl {4,6-diamino-2-[1-(2-fluorobenzyl)-1H-pyrazolo[3-4-b]pyridino-3-yl]pyrimidino-5-yl} methyl carbamate” (Adverio Pharma GmbH, priority 2013, dated 2025):

Experiment: Solid-state stability of the forms of the compound of formula (I)
Format: physicochemical

Compound	thermodynamic stability of the form (between 0° C. and 80° C.)	stability of the amorphous form against crystallization (room temperature)
COC(=O)N(C)c1c(N)nc(-c2nn(Cc3ccccc3F)c3ncccc23)nc1N [Modification I, methyl {4,6-diamino-2-[1-(2-fluorobenzyl)-1H-pyrazolo[3,4-b]pyridino-3-yl]pyrimidino-5-yl}methylcarbamate]	thermodynamically stable form between 0 °C and 80 °C	–
COC(=O)N(C)c1c(N)nc(-c2nn(Cc3ccccc3F)c3ncccc23)nc1N [amorphous form, methyl {4,6-diamino-2-[1-(2-fluorobenzyl)-1H-pyrazolo[3,4-b]pyridin-3-yl]pyrimidin-5-yl}methylcarbamate]	–	can exist at room temperature, but crystallizes very quickly
